Measured values published in the NIST ThermoML archive (doi:10.1016/j.jct.2008.10.010).

Test: molar heat capacity at constant pressure; xn = mol fraction of the nth substance listed
Conditions: 101.3 kPa, Liquid, Small sample (50 mg) DSC

CCC(C)(C)O [2-methylbutan-2-ol] + CCCCCCC
Conditions	molar heat capacity at constant pressure [J/K/mol]
345.14 K, x1 = 0.0249	244.12
345.14 K, x1 = 0.0494	246.22
345.14 K, x1 = 0.1	253.28
345.14 K, x1 = 0.1547	260.94
345.14 K, x1 = 0.1999	266.5
345.14 K, x1 = 0.2993	275.63
345.14 K, x1 = 0.4051	282.19
345.14 K, x1 = 0.4986	286.41
345.14 K, x1 = 0.5981	289.46
345.14 K, x1 = 0.7015	291.51
345.14 K, x1 = 0.8023	291.94
345.14 K, x1 = 0.9139	291.66
345.14 K, x1 = 0.9609	290.76
346.15 K, x1 = 0.0061	244.11
346.15 K, x1 = 0.0249	244.51
346.15 K, x1 = 0.0494	246.51
346.15 K, x1 = 0.1	253.41
346.15 K, x1 = 0.1547	261
346.15 K, x1 = 0.1999	266.61
346.15 K, x1 = 0.2993	275.72
346.15 K, x1 = 0.4051	282.35
346.15 K, x1 = 0.4986	286.63
346.15 K, x1 = 0.5981	289.78
346.15 K, x1 = 0.7015	291.88
346.15 K, x1 = 0.8023	292.49
346.15 K, x1 = 0.9139	292.09
346.15 K, x1 = 0.9609	291.29
347.13 K, x1 = 0.0494	246.82
347.15 K, x1 = 0.9139	292.63
347.16 K, x1 = 0.0061	244.48
347.16 K, x1 = 0.0249	244.81
347.16 K, x1 = 0.1	253.4
347.16 K, x1 = 0.1547	261.01
347.16 K, x1 = 0.1999	266.57
347.16 K, x1 = 0.2993	275.89
347.16 K, x1 = 0.4051	282.48
347.16 K, x1 = 0.4986	286.83
347.16 K, x1 = 0.5981	290.05
347.16 K, x1 = 0.7015	292.26
347.16 K, x1 = 0.8023	292.88
347.16 K, x1 = 0.9609	291.82
348.14 K, x1 = 0.0061	244.95
348.14 K, x1 = 0.0249	245.23
348.14 K, x1 = 0.0494	247.05
348.14 K, x1 = 0.1	253.5
348.14 K, x1 = 0.2993	275.95
348.14 K, x1 = 0.4051	282.77
348.14 K, x1 = 0.4986	287.07
348.14 K, x1 = 0.5981	290.42
348.14 K, x1 = 0.7015	292.68
348.14 K, x1 = 0.8023	293.3
348.14 K, x1 = 0.9139	293.11
348.14 K, x1 = 0.9609	292.28
348.16 K, x1 = 0.1547	261.02
348.16 K, x1 = 0.1999	266.63
349.15 K, x1 = 0.0061	245.31
349.15 K, x1 = 0.0249	245.69
349.15 K, x1 = 0.0494	247.42
349.15 K, x1 = 0.1	253.6
349.15 K, x1 = 0.1547	261.07
349.15 K, x1 = 0.1999	266.66
349.15 K, x1 = 0.2993	276.06
349.15 K, x1 = 0.4051	282.91
349.15 K, x1 = 0.4986	287.38
349.15 K, x1 = 0.5981	290.79
349.15 K, x1 = 0.7015	293.13
349.15 K, x1 = 0.8023	293.78
349.15 K, x1 = 0.9139	293.7
349.15 K, x1 = 0.9609	292.9
350.15 K, x1 = 0.0061	245.7
350.15 K, x1 = 0.0494	247.73
350.15 K, x1 = 0.1999	266.71
350.15 K, x1 = 0.4986	287.48
350.15 K, x1 = 0.5981	290.98
350.15 K, x1 = 0.7015	293.35
350.15 K, x1 = 0.8023	294.18
350.15 K, x1 = 0.9139	294.04
350.15 K, x1 = 0.9609	293.31
350.16 K, x1 = 0.0249	245.9
350.16 K, x1 = 0.1	253.7
350.16 K, x1 = 0.1547	261.07
350.16 K, x1 = 0.2993	276.06
350.16 K, x1 = 0.4051	283.01
351.14 K, x1 = 0.0061	246.16
351.14 K, x1 = 0.0249	246.29
351.14 K, x1 = 0.0494	247.89
351.14 K, x1 = 0.1	253.68
351.14 K, x1 = 0.1547	261.02
351.14 K, x1 = 0.1999	266.6
351.14 K, x1 = 0.4051	283
351.14 K, x1 = 0.4986	287.61
351.14 K, x1 = 0.5981	291.23
351.14 K, x1 = 0.7015	293.67
351.14 K, x1 = 0.8023	294.44
351.14 K, x1 = 0.9139	294.48
351.14 K, x1 = 0.9609	293.76
351.16 K, x1 = 0.2993	276.1
352.15 K, x1 = 0.0061	246.53
352.15 K, x1 = 0.0249	246.7
352.15 K, x1 = 0.0494	248.24
352.15 K, x1 = 0.1	253.93
352.15 K, x1 = 0.1547	261.06
352.15 K, x1 = 0.1999	266.66
352.15 K, x1 = 0.2993	276.22
352.15 K, x1 = 0.4051	283.15
352.15 K, x1 = 0.4986	287.82
352.15 K, x1 = 0.5981	291.44
352.15 K, x1 = 0.7015	293.88
352.15 K, x1 = 0.8023	294.82
352.15 K, x1 = 0.9139	294.82
352.15 K, x1 = 0.9609	294.14
353.15 K, x1 = 0.0061	246.79
353.15 K, x1 = 0.0249	247.03
353.15 K, x1 = 0.0494	248.53
353.15 K, x1 = 0.1	253.91
353.15 K, x1 = 0.1547	260.99
353.15 K, x1 = 0.1999	266.57
353.15 K, x1 = 0.2993	276.2
353.15 K, x1 = 0.4051	283.18
353.15 K, x1 = 0.4986	287.86
353.15 K, x1 = 0.5981	291.63
353.15 K, x1 = 0.7015	294.17
353.15 K, x1 = 0.8023	295.16
353.15 K, x1 = 0.9139	295.27
353.15 K, x1 = 0.9609	294.55
